B1: granulocyte colony-stimulating factor (protein, UniProt P09919 31-207, looked up)
Granulocyte …: TPLGPASSLPQSFLLKCLEQVRKIQGDGAALQEKLVSECATYKLCHPEELVLLGHSLGIPWAPLSSCPSQALQLAGCLSQLHSGLFLYQGLLQALEGISPELGPTLDTLQLDVADFATTIWQQMEELGMAPALQPTQGAMPAFASAFQRRAGGVLVASHLQSFLEVSYRVLRHLAQP
notes: granulocyte colony-stimulating factor; a stem cell enhancer and facilitator

How the values were obtained:
[1] = system: middle cerebral artery occlusion (MCAO) stroke-induced brain infarction; experiment: MCAO rat stroke model, infarct size by TTC staining; assay type: in vivo, Sprague-Dawley rats; conditions: for reduction of ischemia-induced brain infarct size: DETC-MeSO 5.6 mg/kg i.p. 24 hr post MCAO/reperfusion, 8 animals; for effect of individual drug on ischemia-induced infarct size: individual drug at 1/10 dose (G-CSF 10 ug/kg; DETC-MeSO 0.56 mg/kg; sulindac 0.2 mg/kg), 24 hrs post MCAO
[2] = system: C/EBP homologues protein (CHOP); experiment: CHOP expression (Western blot) in primary neuronal cultures subjected to hypoxia and reoxygenation; assay type: cell-based; conditions: 24 hours hypoxia, 16 hours reoxygenation; densitometry vs actin
Method: (§1) Primary neuronal cultures were subjected to 24 hours of hypoxia followed by 16 hours of reoxygenation and cells were harvested for protein extraction and Western blot analysis for expression of CHOP. Levels of CHOP were quantified by densitometry and expressed as a percentage of the signal for actin control samples.

P-IRE-1 = P-IRE-1 expression (Western blot) in primary neuronal cultures subjected to hypoxia and reoxygenation; assay type: cell-based; conditions: 24 hours hypoxia, 16 hours reoxygenation; densitometry vs actin
Method: as §1, with “P-IRE-1.” for “CHOP.”, “P-IRE-1” for “CHOP”

Bcl-2 = experiment: Western blot of Bcl-2 in core and penumbra, MCAO model; assay type: in vivo, rat
Hsp27 = experiment: Western blot of Hsp27 in core and penumbra, MCAO model; assay type: in vivo, rat; conditions: DETC-MeSO treatment prior to MCAO surgery and reperfusion, N=8
From the text: Western blotting on the core and the penumbra tissue of both hemispheres was employed for analysis of the expression of key proteins involved in apoptosis (Bcl-2), and cell protection and survival e.g., two heat shock proteins (HSP27, HSP70) and AKT.

pAKT = conditions: rat, in vivo
JNK = conditions: rat, in vivo
CHOP = experiment: Western blot of CHOP, MCAO model; assay type: in vivo, rat; conditions: G-CSF, Western blotting

Molecule	infarct size as % of the area of the infarcts in the no-drug control group ([1]; 2 injections: 60 minutes before ischemia and 20 minutes before start of reperfusion, TTC)	reduction of ischemia-induced brain infarct size ([1]; daily, 4 days)	reduction of ischemia-induced brain infarct size ([1]; daily, 8 days)	brain infarct size (morphological observation, TTC) ([1]; DETC-MeSO 5.6 mg/kg intraperitoneal 24 hr post MCAO/reperfusion, daily, both 4 and 8 days)	brain infarct size ([1]; DETC-MeSO 5.6 mg/kg one hour before MCAO surgery and reperfusion, continued 4 days, sacrificed 4th day, 1% TTC)	decrease in infarct size compared with the no-drug treated group ([1]; DETC-MeSO 5.6 mg/kg pre-MCAO, 4 days, at 6 mm from frontal pole, N=21)	brain infarct size compared to the control group ([1]; DETC-MeSO 1-7 mg, two injections (1 hr before MCAO surgery, day 11), sacrificed 11th day, 1% TTC)	effect of individual drug on ischemia-induced infarct size ([1]; 8 days)	CHOP expression of hypoxia cells compared to DETC-MeSO-treated cells subjected to hypoxia [2]	P-IRE-1 expression of hypoxia cells compared to DETC-MeSO-treated cells subjected to hypoxia (P-IRE-1)	Bcl-2 expression vs non-treated control animals (Bcl-2; DETC-MeSO treatment prior to MCAO surgery and reperfusion, core and penumbra, N=8)	Hsp-27 expression vs non-treated control animals (Hsp27)	ischemia-induced brain infarct size vs non-treated control animals ([1]; G-CSF 50 μg/kg, 24 hours post ischemia)	infarct volume vs control group ([1]; G-CSF 50 μg/kg, 24 hours post ischemia, n=5)	percentage of infarct volume in entire brain vs control group ([1]; G-CSF 50 μg/kg, 24 hours post ischemia, n=5, P<0.05)	Bcl-2 expression (pro-survival/anti-apoptotic marker) (Bcl-2; rat, in vivo)	pAKT expression (pro-survival/anti-apoptotic marker) (pAKT)	JNK expression (pro-survival/anti-apoptotic marker) (JNK)	CHOP expression (pro-apoptotic protein) (CHOP)
CCN(CC)C(=O)[S+](C)[O-] (stereo not drawn) [DETC-MeSO, S-methyl-N, N-diethylthiolcarbamate sulfoxide]	29%	64+/−11%	61+/−7%	significantly reduced	significantly reduced	50%	significantly reduced	no significant effect	about double	3-3.5 times	significantly increased	significantly increased	–	–	–	–	–	–	–
B1	–	–	–	–	–	–	–	no significant effect	–	–	–	–	greatly reduced	significantly reduced	significantly reduced	up-regulation	up-regulation	up-regulation	down-regulation
